This passage reports IC50 results from patent US12398154B2, “Azaquinazoline pan-KRas inhibitors” (Mirati Therapeutics, Inc., priority 2020, dated 2025).

One assay deals with T1, KRas G13D (Homo sapiens, UniProt P01116, G13D).
T1 construct: Biotinylated KRas (corresponding to amino acids 1-169, produced at Accelegan Inc.); biotin (biotinylated); purchased Accelegan Inc
The assay can be described thus: KRas binding assay (TR-FRET displacement).

A further assay addresses T2, KRas Q61H (Homo sapiens, UniProt P01116, Q61H).
T2 construct: Biotinylated KRas (corresponding to amino acids 1-169, produced at Accelegan Inc.); biotin (biotinylated); purchased Accelegan Inc
The experiment in a line: KRas binding assay (TR-FRET displacement).

The target of a further assay is KRas G12D (Homo sapiens, UniProt P01116, G12D). The experiment in a line: biochemical.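 Further: TR-FRET displacement binding assay on KRas, read after a one-hour incubation at room temperature, IC50 fitted from percent-of-control values.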
KRas G12D, sequence (P01116 1-169 isoform P01116-2 G12D): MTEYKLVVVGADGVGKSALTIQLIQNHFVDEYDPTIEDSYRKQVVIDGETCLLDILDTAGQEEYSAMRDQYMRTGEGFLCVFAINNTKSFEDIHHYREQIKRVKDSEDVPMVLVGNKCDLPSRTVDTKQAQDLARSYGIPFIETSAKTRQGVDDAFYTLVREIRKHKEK
The target in another assay is KRas G12V (Homo sapiens, UniProt P01116, G12V). The assay can be described thus: biochemical.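 Further: KRas binding measured by TR-FRET displacement at room temperature, IC50 fitted from percent of control values.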
KRas G12V, sequence (P01116 1-169 isoform P01116-2 G12V): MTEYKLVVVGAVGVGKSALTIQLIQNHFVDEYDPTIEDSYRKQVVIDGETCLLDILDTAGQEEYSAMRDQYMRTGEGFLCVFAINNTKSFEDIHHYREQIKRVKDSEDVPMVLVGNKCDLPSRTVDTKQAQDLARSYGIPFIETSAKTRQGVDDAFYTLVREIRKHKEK
The next assay concerns the target KRas G12R (Homo sapiens, UniProt P01116, G12R). The experiment in a line: biochemical.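 Further: TR-FRET displacement assay of compound binding to KRas, read after one hour at room temperature, potency from a four-parameter fit of percent-of-control values.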
Another assay concerns the target KRas G12A (Homo sapiens, UniProt P01116, G12A). The experiment in a line: biochemical.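 Further: binding to KRas measured by TR-FRET displacement after one hour at room temperature, IC50 from a four-parameter fit of percent-of-control values.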
The next assay deals with KRas G12S (Homo sapiens, UniProt P01116, G12S). The experiment in a line: biochemical.
KRas G12S, sequence (P01116 1-169 isoform P01116-2 G12S): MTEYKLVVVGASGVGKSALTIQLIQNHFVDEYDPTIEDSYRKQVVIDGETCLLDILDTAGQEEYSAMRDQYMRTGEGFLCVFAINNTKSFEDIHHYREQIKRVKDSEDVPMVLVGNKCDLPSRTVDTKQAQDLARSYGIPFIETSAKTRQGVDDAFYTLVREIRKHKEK
Another assay has as its target KRas G12C (Homo sapiens, UniProt P01116, G12C). The experiment in a line: biochemical.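 Further: binding to KRas assessed by TR-FRET displacement after one hour incubation at room temperature, potency fitted from percent-of-control values.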
Another assay deals with KRas WT (Homo sapiens, UniProt P01116). The experiment in a line: biochemical.
KRas WT, sequence (P01116 1-169 isoform P01116-2): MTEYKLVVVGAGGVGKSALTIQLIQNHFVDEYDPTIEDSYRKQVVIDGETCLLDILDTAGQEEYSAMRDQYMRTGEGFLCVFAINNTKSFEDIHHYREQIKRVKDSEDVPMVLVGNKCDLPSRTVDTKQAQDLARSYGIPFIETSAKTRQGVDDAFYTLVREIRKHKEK
In a further assay the test system is pERK in MKN1 cells. The assay can be described thus: Inhibition of KRas phosphorylation of ERK (Cisbio HTRF pERK assay). The following applies: Homo sapiens, MKN-1, 3 h, read-out: Inhibition (HTRF IC50) of KRas-mediated Phosphorylation of ERK, MKN1.
The next assay concerns pERK in PSN1 cells. The description is as above. The following applies: Homo sapiens, PSN1, 3 h, read-out: Inhibition (HTRF IC50) of KRas-mediated Phosphorylation of ERK, PSN1.
In the next assay the test system is pERK in ASPC1 cells. The description is as above. Conditions: Homo sapiens, ASPC1, read-out: Inhibition (HTRF IC50) of KRas-mediated Phosphorylation of ERK, AsPC-1.
The next assay relates to pERK in H727 cells. The assay is described as above. Conditions: Homo sapiens, NCI-H727, read-out: Inhibition (HTRF IC50) of KRas-mediated Phosphorylation of ERK, H727.
The next assay relates to pERK in H460 cells. The assay is described as above. The following applies: Homo sapiens, NCI-H460, read-out: Inhibition (HTRF IC50) of KRas-mediated Phosphorylation of ERK, H460.

T1 sequence (P01116 1-169 isoform P01116-2 G13D): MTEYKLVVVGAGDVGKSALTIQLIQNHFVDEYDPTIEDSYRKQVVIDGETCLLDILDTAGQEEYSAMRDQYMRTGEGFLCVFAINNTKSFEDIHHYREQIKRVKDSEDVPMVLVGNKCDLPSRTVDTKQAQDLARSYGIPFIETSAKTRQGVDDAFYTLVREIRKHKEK
KRas G12R, sequence (P01116 1-169 isoform P01116-2 G12R): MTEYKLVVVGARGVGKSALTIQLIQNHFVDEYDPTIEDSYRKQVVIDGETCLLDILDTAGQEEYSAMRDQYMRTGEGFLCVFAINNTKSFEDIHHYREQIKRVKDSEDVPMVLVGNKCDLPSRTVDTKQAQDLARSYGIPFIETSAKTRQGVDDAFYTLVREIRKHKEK
KRas G12A, sequence (P01116 1-169 isoform P01116-2 G12A): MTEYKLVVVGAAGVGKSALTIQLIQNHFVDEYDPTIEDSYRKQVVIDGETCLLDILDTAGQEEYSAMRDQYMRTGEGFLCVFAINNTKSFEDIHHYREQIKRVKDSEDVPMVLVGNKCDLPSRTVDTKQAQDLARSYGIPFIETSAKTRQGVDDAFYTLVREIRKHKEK
T2 sequence (P01116 1-169 isoform P01116-2 Q61H): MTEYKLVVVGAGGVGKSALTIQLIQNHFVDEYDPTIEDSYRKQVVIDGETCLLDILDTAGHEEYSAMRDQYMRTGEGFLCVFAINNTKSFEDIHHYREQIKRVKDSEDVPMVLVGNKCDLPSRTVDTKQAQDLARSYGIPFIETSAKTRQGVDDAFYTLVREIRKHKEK
KRas G12C, sequence (P01116 1-169 isoform P01116-2 G12C): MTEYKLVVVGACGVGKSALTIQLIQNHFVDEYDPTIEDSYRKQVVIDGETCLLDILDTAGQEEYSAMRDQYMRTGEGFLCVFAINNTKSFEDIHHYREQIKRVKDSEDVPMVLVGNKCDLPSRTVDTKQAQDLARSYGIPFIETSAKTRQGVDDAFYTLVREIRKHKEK

Consider `CS(=O)(=O)C1CCCCCN(c2nc(OCC34CCCN3CCC4)nc3c(F)c(-c4cccc5cccc(F)c45)ncc23)C1` (stereo not shown) [Example 251, 8-fluoro-7-(8-fluoronaphthalen-1-yl)-2-((hexahydro-1H-pyrrolizin-7a-yl)methoxy)-4-(3-(methylsulfonyl)azocan-1-yl)pyrido[4,3-d]pyrimidine], for which the half-inhibitory concentration (IC50) at KRas G13D was 3780 nM; at KRas Q61H it was 6250 nM; against KRas G12D, 6.83 µM; on KRas G12V it was 3.87 µM; on KRas G12R, 14.6 µM; against KRas G12A it was 6.12 µM. For the same molecule, the IC50 turned out to be 5.75 µM against KRas G12S, 6.4 µM at KRas G12C and 3.84 µM on KRas WT.
Consider `O=S1(=O)NCC2(CCCN(c3nc(OCC45CCCN4CCC5)nc4c(F)c(-c5cccc6cccc(F)c56)ncc34)C2)N1` (stereo not shown) [Example 252, 7-(8-fluoro-7-(8-fluoronaphthalen-1-yl)-2-((tetrahydro-1H-pyrrolizin-7a(5H)-yl)methoxy)pyrido[4,3-d]pyrimidin-4-yl)-2-thia-1,3,7-triazaspiro[4.5]decane 2,2-dioxide], for which the half-inhibitory concentration (IC50) at KRas G13D was determined as 6 nM; on KRas Q61H, 9 nM; against KRas G12D, 0.011 µM; on KRas G12V it was 0.017 µM; on KRas G12R, 0.027 µM; against KRas G12A it was 0.005 µM. In addition, the IC50 was 0.008 µM against KRas G12S, 0.017 µM against KRas G12C and 0.007 µM on KRas WT.
Take `Fc1c(-c2cccc3cccc(F)c23)ncc2c(N3CC(n4cncn4)C3)nc(OCC34CCCN3CCC4)nc12` [Example 253, 4-(3-(1H-1,2,4-triazol-1-yl)azetidin-1-yl)-8-fluoro-7-(8-fluoronaphthalen-1-yl)-2-((hexahydro-1H-pyrrolizin-7a-yl)methoxy)pyrido[4,3-d]pyrimidine]: the IC50 at KRas G13D came out at 14100 nM; at KRas Q61H it was 7720 nM; against KRas G12D, 67.3 µM; at KRas G12V, 4.35 µM; against KRas G12R it was 4.08 µM; at KRas G12A it was 3.03 µM. In addition, the 50% inhibitory concentration (IC50) came to 3.59 µM on KRas G12S, 2.41 µM against KRas G12C and 6 µM against KRas WT.
As for `CN(C)CC1(COc2nc(N3CCCC(C)(O)C3)c3cnc(-c4cccc5cccc(F)c45)c(F)c3n2)CC1` (stereo not shown) [Example 256, 1-(2-((1-((dimethylamino)methyl)cyclopropyl)methoxy)-8-fluoro-7-(8-fluoronaphthalen-1-yl)pyrido[4,3-d]pyrimidin-4-yl)-3-methylpiperidin-3-ol], the IC50 at KRas G13D is 3800 nM; at KRas Q61H it was 6020 nM; at KRas G12D, 2.42 µM; against KRas G12V, 4.54 µM; at KRas G12R it was 8.14 µM; at KRas G12A, 4.63 µM. Also, the half-maximal inhibitory concentration (IC50) against KRas G12S worked out at 5.31 µM; against KRas G12C, 4.05 µM; on KRas WT, 4.03 µM.
`CC1(O)CCCN(c2nc(OCC3(CN4CCCC4)CC3)nc3c(F)c(-c4cccc5cccc(F)c45)ncc23)C1` (stereo not shown) [Example 257, 1-(8-fluoro-7-(8-fluoronaphthalen-1-yl)-2-((1-(pyrrolidin-1-ylmethyl)cyclopropyl)methoxy)pyrido[4,3-d]pyrimidin-4-yl)-3-methylpiperidin-3-ol]: the IC50 turned out to be 3960 nM on KRas G13D; 6030 nM at KRas Q61H; 2.43 µM at KRas G12D; 3.79 µM on KRas G12V; 6.91 µM against KRas G12R; 5.49 µM on KRas G12A. The figures for the IC50 against KRas G12S, at KRas G12C and against KRas WT were 5.22 µM, 4 µM and 4.03 µM, respectively.
Turning to `NC(=O)c1cc2n(n1)CCCN(c1nc(OCC34CCCN3CCC4)nc3c(F)c(-c4cccc5cccc(F)c45)ncc13)C2` [Example 258, 5-(8-fluoro-7-(8-fluoronaphthalen-1-yl)-2-((hexahydro-1H-pyrrolizin-7a-yl)methoxy)pyrido[4,3-d]pyrimidin-4-yl)-5,6,7,8-tetrahydro-4H-pyrazolo[1,5-a][1,4]diazepine-2-carboxamide], the IC50 on KRas G13D is 4380 nM; at KRas Q61H, 4610 nM; against KRas G12D, 0.32 µM; on KRas G12V, 0.858 µM; against KRas G12R it was 1.18 µM; at KRas G12A, 2.07 µM. Further, the IC50 at KRas G12S was 1.01 µM; at KRas G12C, 1.38 µM; against KRas WT, 3.25 µM.
Take `CNC(=O)c1cc2n(n1)CCCN(c1nc(OCC34CCCN3CCC4)nc3c(F)c(-c4cccc5cccc(F)c45)ncc13)C2` [Example 259, 5-(8-fluoro-7-(8-fluoronaphthalen-1-yl)-2-((hexahydro-1H-pyrrolizin-7a-yl)methoxy)pyrido[4,3-d]pyrimidin-4-yl)-N-methyl-5,6,7,8-tetrahydro-4H-pyrazolo[1,5-a][1,4]diazepine-2-carboxamide]: the IC50 at KRas G13D is 3300 nM; at KRas Q61H, 3180 nM; on KRas G12D, 0.158 µM; against KRas G12V, 0.38 µM; against KRas G12R it was 0.769 µM; against KRas G12A it was 1.52 µM. Besides, the IC50 against KRas G12S was 0.649 µM; on KRas G12C, 0.825 µM; against KRas WT it was 2.21 µM.
For `CN(C)C(=O)c1cc2n(n1)CCCN(c1nc(OCC34CCCN3CCC4)nc3c(F)c(-c4cccc5cccc(F)c45)ncc13)C2` [Example 260, 5-(8-fluoro-7-(8-fluoronaphthalen-1-yl)-2-((hexahydro-1H-pyrrolizin-7a-yl)methoxy)pyrido[4,3-d]pyrimidin-4-yl)-N,N-dimethyl-5,6,7,8-tetrahydro-4H-pyrazolo[1,5-a][1,4]diazepine-2-carboxamide], the IC50 at KRas G13D came out at 1170 nM; at KRas Q61H it was 1060 nM; against KRas G12D it was 0.061 µM; against KRas G12V, 0.204 µM; on KRas G12R, 0.455 µM; against KRas G12A it was 0.294 µM. Further, the figures for the IC50 against KRas G12S, at KRas G12C and on KRas WT were 0.419 µM, 0.591 µM and 0.864 µM, respectively.
Consider `OCc1cc2n(n1)CCCN(c1nc(OCC34CCCN3CCC4)nc3c(F)c(-c4cccc5cccc(F)c45)ncc13)C2` [Example 261, (5-(8-fluoro-7-(8-fluoronaphthalen-1-yl)-2-((hexahydro-1H-pyrrolizin-7a-yl)methoxy)pyrido[4,3-d]pyrimidin-4-yl)-5,6,7,8-tetrahydro-4H-pyrazolo[1,5-a][1,4]diazepin-2-yl)methanol], for which the 50% inhibitory concentration (IC50) worked out at 9610 nM at KRas G13D; 10700 nM on KRas Q61H; 1.61 µM against KRas G12D; 3.98 µM at KRas G12V; 2.61 µM at KRas G12R; 5.74 µM on KRas G12A. Besides, the IC50 on KRas G12S was 2.32 µM; against KRas G12C, 2.39 µM; against KRas WT, 7.1 µM.
As to `CCc1c(F)ccc2cc(O)cc(-c3ncc4c(N5CCCc6nn(C(=O)NC(C)C)cc6C5)nc(OC[C@@]56CCCN5C[C@H](F)C6)nc4c3F)c12` [Example 479, 5-(7-(8-ethyl-7-fluoro-3-hydroxynaphthalen-1-yl)-8-fluoro-2-(((2R,7aS)-2-fluorohexahydro-1H-pyrrolizin-7a-yl)methoxy)pyrido[4,3-d]pyrimidin-4-yl)-N-isopropyl-5,6,7,8-tetrahydropyrazolo[4,3-c]azepine-2(4H)-carboxamide], the IC50 against KRas G12D was 0.005 µM; against KRas G12V, 0.004 µM; on KRas G12R, 0.012 µM; in the assay with pERK in MKN1 cells, 0.328 µM; with pERK in PSN1 cells, ≥ 10 µM; in the assay with pERK in ASPC1 cells, 0.203 µM. Besides, the IC50 was 0.115 µM with pERK in H727 cells and 0.987 µM in the assay on pERK in H460 cells.
Take `CCc1c(F)ccc2cc(O)cc(-c3ncc4c(NCc5cc(C(=O)N(C)C)nn5C)nc(OC[C@@]56CCCN5C[C@H](F)C6)nc4c3F)c12` [Example 483, 5-(((7-(8-ethyl-7-fluoro-3-hydroxynaphthalen-1-yl)-8-fluoro-2-(((2R,7aS)-2-fluorotetrahydro-1H-pyrrolizin-7a(5H)-yl)methoxy)pyrido[4,3-d]pyrimidin-4-yl)amino)methyl)-N,N,1-trimethyl-1H-pyrazole-3-carboxamide]: the IC50 against KRas G12D was ≤ 0.002 µM; at KRas G12V, ≤ 0.002 µM; against KRas G12R, ≤ 0.002 µM; in the assay on pERK in MKN1 cells, 0.083 µM; with pERK in PSN1 cells, ≥ 10 µM; with pERK in ASPC1 cells, 0.89 µM. For the same molecule, the IC50 in the assay on pERK in H727 cells is 0.339 µM; in the assay with pERK in H460 cells, 1.59 µM.
